In ChEMBL document CHEMBL1201862, “PubChem BioAssay data set” (2004):
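48-hour exposure; five concentrations; linearly interpolated endpoints. GI50: concentration for 50% inhibition of growth.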 Active and inactive are the calls of the source. No stated cut-off is given here; in the data, active = GI50 up to about 1.1 µM and inactive = higher.

How the values were obtained:
Test in all cases: NCI anticancer screen, dose series, 48 h
DLD-1 = test system: DLD-1
XF498 = test system: XF498
DMS-273 = test system: DMS-273
HOP-18 = test system: HOP-18
SNB-78 = test system: SNB-78
KM-20L2 = test system: KM-20L2
RXF 631 = test system: RXF 631
M19-MEL = test system: M19-MEL
DMS-114 = test system: DMS-114

Row | Structure (SMILES) | GI50 (DLD-1) | GI50 (XF498) | GI50 (DMS-273) | GI50 (HOP-18) | GI50 (SNB-78) | GI50 (KM-20L2) | GI50 (RXF 631) | GI50 (M19-MEL) | GI50 (DMS-114)
1 | O=C(Cc1nc2ccc(C(=O)c3ccccc3)cc2nc1O)C(=O)Nc1ccc(C(F)(F)F)cc1[N+](=O)[O-] | > 100 µM (inactive) | 27.5 µM (inactive) | 99.1 µM (inactive) | 65.2 µM (inactive) | 81.1 µM (inactive) | 56.4 µM (inactive) | 96.6 µM (inactive) | 58.1 µM (inactive) | 
2 | O=C1CCCCCCCCCCC1CN1CCCCC1 (configuration not stated) | 54.8 µM (inactive) | 89.5 µM (inactive) | > 100 µM (inactive) |  | > 100 µM (inactive) | 31.3 µM (inactive) |  | > 100 µM (inactive) | 60.5 µM (inactive)
3 | COC1(OC)CC2C(=O)N(Cc3ccccc3)C1C(S(=O)(=O)c1ccccc1)C2C(C)S(=O)(=O)c1ccccc1 (configuration not stated) | > 100 µM (inactive) | > 100 µM (inactive) | > 100 µM (inactive) | > 100 µM (inactive) | > 100 µM (inactive) | > 100 µM (inactive) |  | > 100 µM (inactive) | 75.5 µM (inactive)
4 | COc1ccc(-c2nc(Sc3c([N+](=O)[O-])ncn3C)n[nH]2)cc1 | 2.49 µM (inactive) | 2.98 µM (inactive) | 2.18 µM (inactive) | 0.296 µM (active) | 4.22 µM (inactive) |  | 3.3 µM (inactive) | 4.9 µM (inactive) | 2.41 µM (inactive)
5 | CC(=O)Oc1cc(Cl)c(OC(C)=O)c2c(OC(C)=O)c(C)c(O[Si](C)(C)C(C)(C)C)cc12 | 1.85 µM (inactive) | 17.5 µM (inactive) | 5.47 µM (inactive) |  | 3.12 µM (inactive) | 17.4 µM (inactive) |  |  | 3 µM (inactive)
6 | CN(c1ccccc1)c1nc(=[N+]2CCCC2)ss1.[O-][Cl+3]([O-])([O-])[O-] |  |  | 6.56 µM (inactive) | > 100 µM (inactive) | > 100 µM (inactive) | > 100 µM (inactive) | 20.6 µM (inactive) |  | 7.66 µM (inactive)
7 | Cc1ccccc1NC(=O)C1C(=O)N(c2ccccc2C)C(=O)/C1=N\NC(N)=S (configuration not stated) | > 100 µM (inactive) | > 100 µM (inactive) | > 100 µM (inactive) |  |  | > 100 µM (inactive) | > 100 µM (inactive) |  | 
8 | C/C(=N/Nc1ccc([N+](=O)[O-])cc1[N+](=O)[O-])C(CC(C(=O)NCc1ccccc1)/C(C)=N\Nc1ccc([N+](=O)[O-])cc1[N+](=O)[O-])C(=O)NCc1ccccc1 (configuration not stated) | 12.1 µM (inactive) |  | 8.02 µM (inactive) | 2.69 µM (inactive) | 9.16 µM (inactive) | 14.2 µM (inactive) | 4.29 µM (inactive) | 11.5 µM (inactive) | 9.91 µM (inactive)
9 | COC(=O)C(=O)C(C(=O)C=C(C)C)C(=O)C(=O)Nc1cccc(C(C)=O)c1 (configuration not stated) | > 100 µM (inactive) | > 100 µM (inactive) | > 100 µM (inactive) | > 100 µM (inactive) | > 100 µM (inactive) | > 100 µM (inactive) | > 100 µM (inactive) | > 100 µM (inactive) | > 100 µM (inactive)
10 | COc1cccc(/C=C2\C(=O)N(C(=O)c3ccc(NC(C)=O)cc3)N=C2C)c1 | > 100 µM (inactive) | > 100 µM (inactive) | > 100 µM (inactive) |  | > 100 µM (inactive) |  |  | > 100 µM (inactive) | > 100 µM (inactive)
11 | O=C(Cn1ccnc1[N+](=O)[O-])c1ccc(F)cc1 |  | > 100 µM (inactive) | > 100 µM (inactive) | > 100 µM (inactive) |  | > 100 µM (inactive) |  | > 100 µM (inactive) | > 100 µM (inactive)
12 | CC(=O)c1c2c(cc3c1CC1(C3)Cc3cc4c(c(C(=O)O)c3C1)CCC4)CCC2 (configuration not stated) | 37.1 µM (inactive) | 57.1 µM (inactive) | 35.6 µM (inactive) | 79.8 µM (inactive) | 55.6 µM (inactive) |  |  | 37 µM (inactive) | 36.3 µM (inactive)
13 | COC(=O)C1(c2ccc(OC)cc2)NC(c2ccccc2)C2C(=O)N(c3ccc(OC)cc3)C(=O)C21 (configuration not stated) | > 100 µM (inactive) | > 100 µM (inactive) | > 100 µM (inactive) | < 0.01 µM (active) | > 100 µM (inactive) | > 100 µM (inactive) | > 100 µM (inactive) |  | > 100 µM (inactive)
14 | CN(C)C(=N)NC(=S)N(C)C | > 100 µM (inactive) | > 100 µM (inactive) | > 100 µM (inactive) | > 100 µM (inactive) | > 100 µM (inactive) | > 100 µM (inactive) | > 100 µM (inactive) | > 100 µM (inactive) | > 100 µM (inactive)
15 | Nc1nc(-c2ccccc2)c(Cl)c(-c2cc(Cl)ccc2O)n1 | 26.3 µM (inactive) | 28.8 µM (inactive) | 29.7 µM (inactive) | 42.3 µM (inactive) | 28.1 µM (inactive) | 65.3 µM (inactive) | 97.7 µM (inactive) | > 72.1 µM (inactive) | 26.7 µM (inactive)
16 | CC(Oc1ccc(OCC2CCCCC2)cc1)C(=O)NCc1ccco1 (configuration not stated) | 34.9 µM (inactive) | 17.7 µM (inactive) | 25.5 µM (inactive) | 89.7 µM (inactive) | 58.6 µM (inactive) |  |  | 40.7 µM (inactive) | 18.4 µM (inactive)
17 | CC(=O)CC(=O)ON(C)C(=O)Cc1ccccc1 | > 100 µM (inactive) | > 100 µM (inactive) | > 100 µM (inactive) |  | > 100 µM (inactive) | > 100 µM (inactive) |  | > 100 µM (inactive) | > 100 µM (inactive)
18 | O=C1CN=C(c2ccccc2)c2ccncc2N1 | > 100 µM (inactive) | > 100 µM (inactive) | > 100 µM (inactive) | > 100 µM (inactive) | > 100 µM (inactive) | > 100 µM (inactive) | > 100 µM (inactive) | > 100 µM (inactive) | > 100 µM (inactive)
19 | Cc1cc(C)nc(NS(=O)(=O)c2ccc(NC(=O)COC(=O)c3cccc4c(=O)c5ccccc5[nH]c34)cc2)n1 | 45.7 µM (inactive) | 33.3 µM (inactive) | 41.2 µM (inactive) |  | 82.2 µM (inactive) | 38.6 µM (inactive) |  | 20.4 µM (inactive) | 56.5 µM (inactive)
20 | N#C/N=C(/N)NCc1ccccc1 | > 100 µM (inactive) |  | > 100 µM (inactive) |  |  | > 100 µM (inactive) |  | > 100 µM (inactive) | > 100 µM (inactive)
21 | CCOC(=O)[C@H]1Nc2ccc(C)cc2C2c3ccccc3CC21 (some centres not stated) | > 100 µM (inactive) |  | > 100 µM (inactive) | > 100 µM (inactive) | > 100 µM (inactive) | > 100 µM (inactive) |  | > 100 µM (inactive) | > 100 µM (inactive)
22 | N#COc1ccc(Oc2ccc(OC#N)cc2)cc1 | 63 µM (inactive) | > 100 µM (inactive) |  | > 100 µM (inactive) | > 100 µM (inactive) | > 100 µM (inactive) | 17.1 µM (inactive) | > 100 µM (inactive) | 32.1 µM (inactive)
23 | O=S1(=O)C[C@@H](O)[C@H](O)CS1 | > 100 µM (inactive) | > 100 µM (inactive) | > 100 µM (inactive) | > 100 µM (inactive) | > 100 µM (inactive) | > 100 µM (inactive) |  | > 100 µM (inactive) | > 100 µM (inactive)
24 | COc1cccc(OC)c1C(=O)OCc1ccccc1 | > 100 µM (inactive) | > 100 µM (inactive) |  |  |  | > 100 µM (inactive) |  | > 100 µM (inactive) | > 100 µM (inactive)
25 | c1ccc2c(c1)[nH]c1c2ncc2[nH]c3ccccc3c21 | 3.44 µM (inactive) | 1.78 µM (inactive) | 2.45 µM (inactive) | 2.88 µM (inactive) | 4.95 µM (inactive) | 3.71 µM (inactive) | 2.16 µM (inactive) | 5.35 µM (inactive) | 2.44 µM (inactive)
